Results reported in article PMC11414674, “Cryo-EM structure of ACE2-SIT1 in complex with tiagabine” (The Journal of Biological Chemistry, 2024).

Columns and labels:
SIT1 (SLC6A20) [1] = molecular target: T1, SIT1 (SLC6A20) (Homo sapiens, UniProt Q9NP91); assay: […]proline uptake in Xenopus oocytes, inhibitor at […]; assay type: cell-based; parameters: with ACE2; settings: read-out: % inhibition at 100 μM
SIT1 (SLC6A20) [2] = molecular target: T1, SIT1 (SLC6A20); assay: cryo-EM structure at […] Å; IC50 from […]proline uptake in Xenopus oocytes expressing SIT1-ACE2 ([…] proline); assay type: cell-based; parameters: full-length human SIT1, N-terminal FLAG tag, in complex with full-length ACE2; with ACE2
B0AT2 (SLC6A15) = molecular target: T2, B0AT2 (SLC6A15) (Homo sapiens, UniProt Q9H2J7); assay: labelled leucine uptake in Xenopus oocytes, tiagabine at […]; assay type: cell-based
T2 sequence (Q9H2J7 1-730): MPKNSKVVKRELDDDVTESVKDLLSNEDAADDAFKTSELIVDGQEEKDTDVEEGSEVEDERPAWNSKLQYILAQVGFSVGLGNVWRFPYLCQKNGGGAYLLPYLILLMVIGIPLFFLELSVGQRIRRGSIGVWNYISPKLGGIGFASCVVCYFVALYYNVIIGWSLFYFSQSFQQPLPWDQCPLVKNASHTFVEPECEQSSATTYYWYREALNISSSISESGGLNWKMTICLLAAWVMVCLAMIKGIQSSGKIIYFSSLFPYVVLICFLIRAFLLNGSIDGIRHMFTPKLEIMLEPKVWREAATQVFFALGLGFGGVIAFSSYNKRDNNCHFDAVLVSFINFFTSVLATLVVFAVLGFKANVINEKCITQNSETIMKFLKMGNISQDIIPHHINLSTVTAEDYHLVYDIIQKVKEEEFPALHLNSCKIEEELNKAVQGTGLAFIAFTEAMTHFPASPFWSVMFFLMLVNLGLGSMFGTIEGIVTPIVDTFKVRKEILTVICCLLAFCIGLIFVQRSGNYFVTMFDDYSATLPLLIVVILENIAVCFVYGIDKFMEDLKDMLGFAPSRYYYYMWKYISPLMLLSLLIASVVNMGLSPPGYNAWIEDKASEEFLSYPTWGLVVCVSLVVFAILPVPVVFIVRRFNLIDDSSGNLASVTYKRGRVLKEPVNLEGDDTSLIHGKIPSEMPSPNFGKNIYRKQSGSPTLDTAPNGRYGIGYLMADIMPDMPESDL

[3] = substrate: O=C(O)[C@@H]1CCCN1; assay: cells, lysate or membranes; settings: Na+ and Cl- orthosteric substrate site

T1 sequence (Q9BYF1 18-805 partner, one chain of several): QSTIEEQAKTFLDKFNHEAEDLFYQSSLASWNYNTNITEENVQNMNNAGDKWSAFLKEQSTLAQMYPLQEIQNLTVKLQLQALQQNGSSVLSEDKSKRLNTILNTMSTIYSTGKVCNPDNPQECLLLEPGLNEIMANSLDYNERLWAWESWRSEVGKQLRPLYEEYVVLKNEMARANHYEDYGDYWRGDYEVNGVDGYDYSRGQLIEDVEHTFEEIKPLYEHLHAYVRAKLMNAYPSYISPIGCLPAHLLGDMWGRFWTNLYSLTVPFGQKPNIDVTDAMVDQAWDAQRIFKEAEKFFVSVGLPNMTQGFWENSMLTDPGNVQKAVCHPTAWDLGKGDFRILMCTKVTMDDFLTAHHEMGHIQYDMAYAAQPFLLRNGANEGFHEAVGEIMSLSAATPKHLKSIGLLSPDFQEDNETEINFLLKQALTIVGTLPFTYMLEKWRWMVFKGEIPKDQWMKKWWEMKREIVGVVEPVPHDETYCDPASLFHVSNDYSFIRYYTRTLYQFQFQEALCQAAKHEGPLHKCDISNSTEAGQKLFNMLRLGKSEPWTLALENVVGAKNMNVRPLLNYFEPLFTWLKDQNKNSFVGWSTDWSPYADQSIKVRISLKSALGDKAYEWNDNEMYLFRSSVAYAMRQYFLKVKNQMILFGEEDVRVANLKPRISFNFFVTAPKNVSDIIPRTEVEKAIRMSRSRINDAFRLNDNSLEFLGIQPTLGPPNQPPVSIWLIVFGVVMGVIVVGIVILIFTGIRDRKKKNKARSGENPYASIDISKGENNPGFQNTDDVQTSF

Work on `O=C(O)C1CCCN(CCC=C(c2ccccc2)c2ccccc2)C1` (centres unmarked) [SKF89976A] yielded an inhibition at 100 µM (SIT1 (SLC6A20) [1]) of 58%.

Work on `O=C(O)C1=CCCN(CCOC(c2ccc(C(F)(F)F)cc2)c2ccc(C(F)(F)F)cc2)C1` [CI966] yielded an inhibition at 100 µM (SIT1 (SLC6A20) [1]) of 53%.

With `Cc1ccsc1C(=CCCN1CCC[C@@H](C(=O)O)C1)c1sccc1C` [tiagabine] the IC50 (SIT1 (SLC6A20) [2]) was 18 ± 4 µM and the “labelled leucine uptake in Xenopus oocytes, tiagabine at 100 μM” value (B0AT2 (SLC6A15)) was “The branched-chain amino acid transporter B^0AT2 (SLC6A15) was similarly sensitive to inhibition by Tiagabine”.

B1: SIT1 (SLC6A20) (Homo sapiens) (protein)
chain: MEKARPLWANSLQFVFACISYAVGLGNVWRFPYLCQMYGGGSFLVPYIIMLIVEGMPLLYLELAVGQRMRQGSIGAWRTISPYLSGVGVASVVVSFFLSMYYNVINAWAFWYLFHSFQDPLPWSVCPLNGNHTGYDEECEKASSTQYFWYRKTLNISPSLQENGGVQWEPALCLLLAWLVVYLCILRGTESTGKVVYFTASLPYCVLIIYLIRGLTLHGATNGLMYMFTPKIEQLANPKAWINAATQIFFSLGLGFGSLIAFASYNEPSNNCQKHAIIVSLINSFTSIFASIVTFSIYGFKATFNYENCLKKVSLLLTNTFDLEDGFLTASNLEQVKGYLASAYPSKYSEMFPQIKNCSLESELDTAVQGTGLAFIVYTEAIKNMEVSQLWSVLYFFMLLMLGIGSMLGNTAAILTPLTDSKIISSHLPKEAISGLVCLVNCAIGMVFTMEAGNYWFDIFNDYAATLSLLLIVLVETIAVCYVYGLRRFESDLKAMTGRAVSWYWKVMWAGVSPLLIVSLFVFYLSDYILTGTLKYQAWDASQGQLVTKDYPAYALAVIGLLVASSTMCIPLAALGTFVQRRLKRGDADPVA
B1 showed a Km [3] of 130 µM.
